For 5 molecules, half-life, Emax and EC50 results are on record in patent US20230220035A1 (DONG-A ST CO., LTD., published 2023).

A value given as a limit tells only on which side of the number the result lay.

One data set can be described thus: in vivo. The following applies: cynomolgus monkey, sc.
The target in another data set is GLP-1 receptor (Homo sapiens, UniProt P43220). The data set is described as follows: Human GLP-1 receptor activation assay (CRE-luciferase). Also noted: host or cells: CHO-K1. The data set is classed as cell-based. The following applies: for Emax: CHO-K1, 6 h, read-out: GLP-1 receptor Maximum activation (% vs GLP-1); for EC50: CHO-K1 cells transiently transfected, luciferase, 6 hours, 0.1% BSA. As for the experimental part: (§1) Then, the resulting increased luciferase activity was evaluated as a measurement of the effect on each receptor activation.
Sequence of GLP-1 receptor (P43220 24-463): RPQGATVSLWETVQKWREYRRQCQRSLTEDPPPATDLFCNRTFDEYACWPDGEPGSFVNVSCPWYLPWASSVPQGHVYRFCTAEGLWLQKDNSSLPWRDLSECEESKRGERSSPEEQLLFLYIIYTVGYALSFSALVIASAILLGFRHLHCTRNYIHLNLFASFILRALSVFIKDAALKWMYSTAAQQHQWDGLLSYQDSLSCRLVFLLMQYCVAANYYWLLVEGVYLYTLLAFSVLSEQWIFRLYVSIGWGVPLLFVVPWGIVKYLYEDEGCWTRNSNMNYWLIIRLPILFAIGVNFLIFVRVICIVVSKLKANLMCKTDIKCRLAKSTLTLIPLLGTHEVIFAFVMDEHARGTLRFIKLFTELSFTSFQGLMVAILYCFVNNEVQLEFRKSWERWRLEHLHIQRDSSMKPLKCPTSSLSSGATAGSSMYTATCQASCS
(§2) For positive control, endogenous ligand GLP-1 or glucagon was used for respective evaluation. The above-mentioned acylated oxyntomodulin peptide analogs of Comparative Example 8-12 were synthesized and used as comparative examples.
(§3) After 3 hours of transfection, medium was exchanged to Alpha Minimal Essential Medium (α-MEM) comprising 10% fetal bovine serum (FBS). Next day, the medium was exchanged to α-MEM comprising the acylated oxyntomodulin peptide analog of the present invention and 0.1% bovine serum albumin (BSA). After 6 hours, dual luciferase assay reagent (Promega) was added in the same amount as the medium in which the cells were submerged, and firefly luciferase and Renilla luciferase activities were successively measured. Firefly luciferase activity values were corrected against Renilla luciferase activity to yield transfection efficiency.

A further data set has as its target glucagon receptor (Homo sapiens, UniProt P47871). The data set is described as follows: Human glucagon receptor activation assay (CRE-luciferase). The data set is classed as cell-based. Also noted: host or cells: CHO-K1. The following applies: CHO-K1 cells transiently transfected; for Emax: 6 h, relative to glucagon, read-out: GCG receptor Maximum activation (% vs GCG); for EC50: 6 hours, 0.1% BSA, read-out: GCG receptor EC50. The method, then:
as §1, §2, §3

Sequence of glucagon receptor (P47871 26-477): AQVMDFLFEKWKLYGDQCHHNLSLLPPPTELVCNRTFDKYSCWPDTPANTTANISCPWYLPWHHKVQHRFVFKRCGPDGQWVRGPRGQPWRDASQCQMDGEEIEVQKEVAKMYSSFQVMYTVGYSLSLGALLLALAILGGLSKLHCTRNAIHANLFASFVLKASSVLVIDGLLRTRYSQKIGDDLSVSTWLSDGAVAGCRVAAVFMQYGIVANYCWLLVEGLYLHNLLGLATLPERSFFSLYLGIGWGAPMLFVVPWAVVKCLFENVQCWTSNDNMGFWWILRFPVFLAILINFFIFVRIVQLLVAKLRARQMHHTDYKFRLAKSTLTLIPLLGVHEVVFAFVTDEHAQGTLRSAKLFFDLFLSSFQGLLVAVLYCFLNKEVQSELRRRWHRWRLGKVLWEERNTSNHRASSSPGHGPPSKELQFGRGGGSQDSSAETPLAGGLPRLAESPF
From the text for in vivo: Cynomolgus monkeys were used to evaluate the pharmacokinetics in monkeys of the acylated oxyntomodulin peptide analogs according to the present invention.

Regarding `CCCCCCCCCCCCCCCCCC(=O)N[C@@H](CCC(=O)NCCOCCOCC(=O)NCCOCCOCC(=O)NCCCC[C@H](NC(=O)[C@H](CC(=O)O)NC(=O)[C@H](CO)NC(=O)[C@@H](NC(=O)[C@H](Cc1ccccc1)NC(=O)[C@@H](NC(=O)CNC(=O)[C@H](CCC(N)=O)NC(=O)C(C)(C)NC(=O)[C@@H](N)Cc1c[nH]cn1)[C@@H](C)O)[C@@H](C)O)C(=O)N[C@@H](CO)C(=O)N[C@@H](CCCCN)C(=O)N[C@@H](Cc1ccc(O)cc1)C(=O)N[C@@H](CC(C)C)C(=O)N[C@@H](CC(=O)O)C(=O)NC(C)(C)C(=O)N[C@@H](CCCNC(=N)N)C(=O)N[C@@H](CCCNC(=N)N)C(=O)N[C@@H](C)C(=O)N[C@@H](CCC(N)=O)C(=O)N[C@@H](CC(=O)O)C(=O)N[C@@H](Cc1ccccc1)C(=O)N[C@H](C(=O)N[C@@H](CCC(N)=O)C(=O)N[C@@H](Cc1c[nH]c2ccccc12)C(=O)N[C@@H](CC(C)C)C(=O)N[C@@H](CCSC)C(=O)N[C@@H](CC(N)=O)C(=O)N[C@H](C(=O)N[C@@H](CCCCN)C(=O)N[C@@H](CCC(=O)O)C(=O)N[C@@H](Cc1ccc(O)cc1)C(=O)N[C@@H](CCC(=O)O)C(=O)N[C@@H](CCCCNC(=O)[C@@H](N)CCCCNC(=O)CCCCCCCCCCCCCCCCC(=O)O)C(=O)N[C@@H](CCC(=O)O)C(=O)N[C@@H](Cc1ccc(O)cc1)C(=O)N[C@@H](CCC(=O)O)C(=O)O)[C@@H](C)O)C(C)C)C(=O)O` [Compound 4], the half-life in the data set “in vivo” (Monkey PK (S.C. half-life)) lay within 18 to 24 h; in “in vivo” (monkey PK half-life) it was 12 to 24 h. The results for the Emax at GLP-1 receptor and on glucagon receptor were 87.9% and 95.4%, respectively. Also, the concentration for a half-maximal effect (EC50) on GLP-1 receptor was 0.1 to 1 nM; on glucagon receptor, at least 1 nM.

As for `CCCCCCCCCCCCCCCCCC(=O)N[C@@H](CCC(=O)NCCOCCOCC(=O)NCCOCCOCC(=O)NCCCC[C@H](NC(=O)[C@H](CC(=O)O)NC(=O)[C@H](CO)NC(=O)[C@@H](NC(=O)[C@H](Cc1ccccc1)NC(=O)[C@@H](NC(=O)CNC(=O)[C@H](CCC(N)=O)NC(=O)C(C)(C)NC(=O)[C@@H](N)Cc1c[nH]cn1)[C@@H](C)O)[C@@H](C)O)C(=O)N[C@@H](CO)C(=O)N[C@@H](CCCCN)C(=O)N[C@@H](Cc1ccc(O)cc1)C(=O)N[C@@H](CC(C)C)C(=O)N[C@@H](CC(=O)O)C(=O)NC(C)(C)C(=O)N[C@@H](CCCNC(=N)N)C(=O)N[C@@H](CCCNC(=N)N)C(=O)N[C@@H](C)C(=O)N[C@@H](CCC(N)=O)C(=O)N[C@@H](CC(=O)O)C(=O)N[C@@H](Cc1ccccc1)C(=O)N[C@H](C(=O)N[C@@H](CCC(N)=O)C(=O)N[C@@H](Cc1c[nH]c2ccccc12)C(=O)N[C@@H](CC(C)C)C(=O)N[C@@H](CCSC)C(=O)N[C@@H](CC(N)=O)C(=O)N[C@H](C(=O)N[C@@H](CCCCN)C(=O)N[C@@H](CCC(=O)O)C(=O)N[C@@H](Cc1ccc(O)cc1)C(=O)N[C@@H](CCC(=O)O)C(=O)N[C@@H](CCCCNC(=O)COCCOCCNC(=O)COCCOCCNC(=O)COCCOCCNC(=O)CC[C@H](NC(=O)CCCCCCCCCCCCCCCCC(=O)O)C(=O)O)C(=O)N[C@@H](CCC(=O)O)C(=O)N[C@@H](Cc1ccc(O)cc1)C(=O)N[C@@H](CCC(=O)O)C(=O)O)[C@@H](C)O)C(C)C)C(=O)O` [Compound 5], the half-life in the data set “in vivo” (Monkey PK (S.C. half-life)) lay within 18 to 24 h; in “in vivo” (monkey PK half-life), 12 to 24 h. For the same molecule, the Emax on GLP-1 receptor was 93.6%; at glucagon receptor, 99.4%. The EC50 on GLP-1 receptor and at glucagon receptor was 0.1 to 1 nM in each case.

With `CCCCCCCCCCCCCCCCCC(=O)N[C@@H](CCC(=O)NCCOCCOCC(=O)NCCOCCOCC(=O)NCCCC[C@H](NC(=O)[C@H](CC(=O)O)NC(=O)[C@H](CO)NC(=O)[C@@H](NC(=O)[C@H](Cc1ccccc1)NC(=O)[C@@H](NC(=O)CNC(=O)[C@H](CCC(N)=O)NC(=O)C(C)(C)NC(=O)[C@@H](N)Cc1c[nH]cn1)[C@@H](C)O)[C@@H](C)O)C(=O)N[C@@H](CO)C(=O)N[C@@H](CCCCN)C(=O)N[C@@H](Cc1ccc(O)cc1)C(=O)N[C@@H](CC(C)C)C(=O)N[C@@H](CC(=O)O)C(=O)NC(C)(C)C(=O)N[C@@H](CCCNC(=N)N)C(=O)N[C@@H](CCCNC(=N)N)C(=O)N[C@@H](C)C(=O)N[C@@H](CCC(N)=O)C(=O)N[C@@H](CC(=O)O)C(=O)N[C@@H](Cc1ccccc1)C(=O)N[C@H](C(=O)N[C@@H](CCC(N)=O)C(=O)N[C@@H](Cc1c[nH]c2ccccc12)C(=O)N[C@@H](CC(C)C)C(=O)N[C@@H](CCSC)C(=O)N[C@@H](CC(N)=O)C(=O)N[C@H](C(=O)N[C@@H](CCCCN)C(=O)N[C@@H](CCC(=O)O)C(=O)N[C@@H](Cc1ccc(O)cc1)C(=O)N[C@@H](CCC(=O)O)C(=O)N[C@@H](CCCCNC(=O)[C@@H](N)CCCCNC(=O)COCCOCCNC(=O)COCCOCCNC(=O)COCCOCCNC(=O)CC[C@H](NC(=O)CCCCCCCCCCCCCCCCC(=O)O)C(=O)O)C(=O)N[C@@H](CCC(=O)O)C(=O)N[C@@H](Cc1ccc(O)cc1)C(=O)N[C@@H](CCC(=O)O)C(=O)O)[C@@H](C)O)C(C)C)C(=O)O` [Compound 6], the half-life lay in the range of 12 to 18 h in “in vivo” (Monkey PK (S.C. half-life)) and 12 to 24 h in the data set “in vivo” (monkey PK half-life). Besides, the values for the Emax on GLP-1 receptor and on glucagon receptor were 83.8% and 89.1%, respectively. Moreover, the concentration for a half-maximal effect (EC50) at GLP-1 receptor and on glucagon receptor was 0.1 to 1 nM throughout.

For `CCCCCCCCCCCCCCCCCC(=O)N[C@@H](CCC(=O)NCCOCCOCC(=O)NCCOCCOCC(=O)NCCCC[C@H](NC(=O)[C@H](CC(=O)O)NC(=O)[C@H](CO)NC(=O)[C@@H](NC(=O)[C@H](Cc1ccccc1)NC(=O)[C@@H](NC(=O)CNC(=O)[C@H](CCC(N)=O)NC(=O)C(C)(C)NC(=O)[C@@H](N)Cc1c[nH]cn1)[C@@H](C)O)[C@@H](C)O)C(=O)N[C@@H](CO)C(=O)N[C@@H](CCCCN)C(=O)N[C@@H](Cc1ccc(O)cc1)C(=O)N[C@@H](CC(C)C)C(=O)N[C@@H](CC(=O)O)C(=O)NC(C)(C)C(=O)N[C@@H](CCCNC(=N)N)C(=O)N[C@@H](CCCNC(=N)N)C(=O)N[C@@H](C)C(=O)N[C@@H](CCC(N)=O)C(=O)N[C@@H](CC(=O)O)C(=O)N[C@@H](Cc1ccccc1)C(=O)N[C@H](C(=O)N[C@@H](CCC(N)=O)C(=O)N[C@@H](Cc1c[nH]c2ccccc12)C(=O)N[C@@H](CC(C)C)C(=O)N[C@@H](CCSC)C(=O)N[C@@H](CC(N)=O)C(=O)N[C@H](C(=O)N[C@@H](CCCCN)C(=O)N[C@@H](CCC(=O)O)C(=O)N[C@@H](Cc1ccc(O)cc1)C(=O)N[C@@H](CCC(=O)O)C(=O)N[C@@H](CCCCNC(=O)CCCCCCCCCCCCCCC)C(=O)N[C@@H](CCC(=O)O)C(=O)N[C@@H](Cc1ccc(O)cc1)C(=O)N[C@@H](CCC(=O)O)C(=O)O)[C@@H](C)O)C(C)C)C(=O)O` [Compound 9], the half-life in the data set “in vivo” (Monkey PK (S.C. half-life)) was 6 to 12 h; in the data set “in vivo” (monkey PK half-life), below 12 h. Also, the Emax at GLP-1 receptor worked out at 70.4%; on glucagon receptor it was 73.3%. For the same molecule, the 50% effective concentration (EC50) on GLP-1 receptor and on glucagon receptor was 0.1 to 1 nM in each case.

With `CCCCCCCCCCCCCCCCCC(=O)N[C@@H](CCC(=O)NCCOCCOCC(=O)NCCOCCOCC(=O)NCCCC[C@H](NC(=O)[C@H](CC(=O)O)NC(=O)[C@H](CO)NC(=O)[C@@H](NC(=O)[C@H](Cc1ccccc1)NC(=O)[C@@H](NC(=O)CNC(=O)[C@H](CCC(N)=O)NC(=O)C(C)(C)NC(=O)[C@@H](N)Cc1c[nH]cn1)[C@@H](C)O)[C@@H](C)O)C(=O)N[C@@H](CO)C(=O)N[C@@H](CCCCN)C(=O)N[C@@H](Cc1ccc(O)cc1)C(=O)N[C@@H](CC(C)C)C(=O)N[C@@H](CC(=O)O)C(=O)NC(C)(C)C(=O)N[C@@H](CCCNC(=N)N)C(=O)N[C@@H](CCCNC(=N)N)C(=O)N[C@@H](C)C(=O)N[C@@H](CCC(N)=O)C(=O)N[C@@H](CC(=O)O)C(=O)N[C@@H](Cc1ccccc1)C(=O)N[C@H](C(=O)N[C@@H](CCC(N)=O)C(=O)N[C@@H](Cc1c[nH]c2ccccc12)C(=O)N[C@@H](CC(C)C)C(=O)N[C@@H](CCSC)C(=O)N[C@@H](CC(N)=O)C(=O)N[C@H](C(=O)N[C@@H](CCCCN)C(=O)N[C@@H](CCC(=O)O)C(=O)N[C@@H](Cc1ccc(O)cc1)C(=O)N[C@@H](CCC(=O)O)C(=O)N[C@@H](CCCCNC(=O)CCCCCCCCCCCCC(N)=O)C(=O)N[C@@H](CCC(=O)O)C(=O)N[C@@H](Cc1ccc(O)cc1)C(=O)N[C@@H](CCC(=O)O)C(=O)O)[C@@H](C)O)C(C)C)C(=O)O` [Compound 10], the half-life in “in vivo” (Monkey PK (S.C. half-life)) is below 6 h; in “in vivo” (monkey PK half-life), below 12 h. Also, the values for the Emax at GLP-1 receptor and at glucagon receptor were 105% and 110%, respectively. Further, the EC50 on GLP-1 receptor and on glucagon receptor was below 0.1 nM in each case.
